{"source": "patent US20100292306A1", "about": "“Compositions And Methods For The Treatment Of Muscular Dystrophy” (priority 2005, published 2010)", "key": {"nuclear NF-κB activation": {"tested_on": "nuclear NF-κB activation", "conditions": "long term treatment; Messina et al. (2006); cited from earlier work"}, "mdx TS muscle fibers": {"tested_on": "mdx TS muscle fibers", "assay": "Intracellular recording of resting membrane potential in TS muscle fibers after chronic treatment", "format": "in vivo, mdx mice"}, "mdx mice": {"tested_on": "mdx mice", "assay": "Noninvasive whole body tension (WBT) measurement of forward pulling tensions", "format": "in vivo", "description": "FIG. 18 presents individual “forward pulling tensions” (FPTs; upward deflections) recorded from a PDTC-treated mouse (Series 2) using the whole body tension (WBT) technique (Carlson and Makiejus, 1990). The rank order of FPTs from highest to lowest is indicated by the numbers in the figure. […] In the Series 2 experiments, WBT measurements were obtained from each of the saline-injected and PDTC-injected mice on days 0, 9, 21 and 40 of the experiment.\nAs a first step in examining the potential effects of PDTC treatment on WBT tension development, the slope of the decline in FPTs was evaluated for each recording session for each mouse examined in the Series 2 experiments (FIG. 19A, 19B). This measure essentially provides a “fatigue index” (FI) since the slope of the decline in FPTs is a direct measure of the average magnitude of the decline in FPT per individual pull for rank-ordered pulls number 2 through 10. If 10 individual pulls obtained during the recording session have identical magnitudes representing the highest FPT, then the FI equals 0. In contrast, a 50% reduction in FPT per pull would produce an FI equal to −0.5.\nTo examine the potential effect of PDTC treatment on FI in age matched adult mdx mice, a pre-treatment FU was obtained during a typical recording session from each of 10 mdx mice used in the Series 2 investigations (age 9.5 to 16 months at beginning of study). Five of the mice were subsequently treated with daily injections of vehicle (HEPES buffered Ringer's solution) and 5 of the mice were treated with daily injections of 50 mg/kg PDTC. Recordings for each of the mice were subsequently obtained on days 9, 21, and 40 of the treatment period (e.g., FIG. 19). To determine the potential effects of treatment on FI, the FIs obtained on days 9, 21, and 40 (e.g., FIG. 19) were each normalized to the pre-treatment FI for each of the 10 mice used in the study. […] A decrease in the FI indicating a reduction in the average loss of tension per pull during the course of the study would produce normalized FIs less than one, no change in FI would be associated with normalized FIs equal to 1.0, and increases in FI would produce normalized FIs greater than 1.0.\nMdx (C57 Bl10-mdx) and nondystrophic (C57Bl10-SnJ) mice were obtained from Jackson laboratories and bred under conditions approved by the Institutional Animal Care and Use Committee (IACUC). All studies were performed in accordance with the guidelines provided by the IACUC. Male and female PDTC treated mdx mice received daily intraperitoneal (ip) injections of 50 mg/kg pyrollidine dithiocarbamate (PDTC; Sigma P8765) dissolved in sterile-filtered (0.2 μm) HEPES-buffered Ringers solution (147.5 mM NaCl, 5 mM KCl, 2 mM CaCl2, 11 mM glucose, 5 mM Hepes, pH 7.35). Age- and gender-matched groups of vehicle-treated mice received corresponding injections of HEPES Ringers. See Carlson et al., 2005. The PDTC experiments were conducted on two series of mature adult mdx mice (9.5-16 month; 19-20 months) and on a series of young adult (1 month) mice. In each case, the mice in the experimental and vehicle-treated groups were matched according to age and gender with an equal number of males and females in each group. WBT tension measurements were obtained prior to initiating treatment and on multiple occasions following at least 3 weeks (20 days) of treatment.\nA group of 30 day-old mdx mice were exposed to daily ip injections (30 day) of 40 mg/kg UDCA (Sigma #5127; 2 mg/ml; N=12 experimental) in an isotonic saline vehicle (1.02% NaCl, pH 8.4,) or a synthetic taurine derivative of UDCA (tauroursodeoxycholic acid, TUDCA, SpA Laboratorio Farmacologico, Cenate Sotto, Italy; 6 mg/ml; N=4 experimental) administered in a saline vehicle (NaCl 6 g/l, KCl 0.3 g/l, CaCl2 0.2 g/l, Na acetate 4 g/l, 300 mosM/l, pH 6.1).\nWBT measurements were obtained as indicated in Examples 5 through 7 by placing an approximately 0.5 inch square piece of adhesive tape around the tail about 1 inch from the tip. […]"}, "[1]": {"assay": "Observation of viability, side effects and body weight during treatment", "conditions": "overall sample of PDTC-treated mice"}, "mdx gastrocnemius muscle": {"tested_on": "mdx gastrocnemius muscle", "assay": "Gastrocnemius twitch tension at optimal length"}, "[2]": {"conditions": "Series 3 aged mdx mice, P<0.001 vs saline littermates"}, "[3]": {"conditions": "individual 6 month mdx male, 50 mg/kg for 30 days (FIG. 34C)"}, "[4]": {"conditions": "mature mdx, Series 2 through 4, post-treatment (at least 20 days), p<0.05"}, "[5]": {"conditions": "mature mdx, Series 2 through 4, p<0.05"}}, "note": "Entries after “also recorded” stand apart in the source; their conditions may differ.", "data": [{"smiles": "S=C(S)N1CCCC1", "note": "[PDTC, pyrrolidine dithiocarbamate]", "values": [{"measurement": "nuclear NF-κB activation in mdx quadriceps", "setting": "nuclear NF-κB activation", "result": "effectively reduced"}, {"measurement": "resting potential of TS fibers", "setting": "mdx TS muscle fibers; 50 mg/kg ip 48-76 days, mature mdx mice Series 2 and Series 3", "result": "significantly increases"}, {"measurement": "resting potential", "setting": "mdx TS muscle fibers; Series 1 daily PDTC, middle and caudal regions, relative to nondystrophic levels", "result": "completely restored; also recorded: restores"}, {"measurement": "increase in resting potential, caudal region", "setting": "mdx TS muscle fibers; Series 2 daily PDTC", "result": "not"}, {"measurement": "resting potential, middle region", "setting": "mdx TS muscle fibers; Series 2 daily PDTC, saline −35.8 mV, P<0.05", "result": "−45.4", "unit": "mV"}, {"measurement": "average resting potential, middle region", "setting": "mdx TS muscle fibers; Series 3 aged mdx mice, N=9 fibers, 2 mice", "result": "−32.2±6.5", "unit": "mV"}, {"measurement": "resting potential, caudal region", "setting": "mdx TS muscle fibers; [2]", "result": "approximately −45 mV"}, {"measurement": "resting potential, overall (middle, caudal, cephalad combined)", "setting": "mdx TS muscle fibers; [2]", "result": "~−40", "unit": "mV"}, {"measurement": "overall resting potential", "setting": "mdx TS muscle fibers; Series 4: administration initiated at 5 months, read at 6.5-13.5 months, N=64 fibers, 3 TS muscles", "result": "-49.3 ± 1.4", "unit": "mV"}, {"measurement": "average resting potential", "setting": "mdx TS muscle fibers; Series 4: mdx mouse treated between 5 and 13.5 months, N=22 fibers", "result": "−53.3±2.0", "unit": "mV"}, {"measurement": "functional reserve FR (WBT10/WBT5)", "setting": "mdx mice; 50 mg/kg 30 consecutive days from about 30 days of age, at 60 days", "result": "approximately 0.9"}, {"measurement": "normalized fatigue index (FI), effect of treatment over days", "setting": "mdx mice; Series 2, 50 mg/kg daily, Kruskal-Wallis p<0.05, Day 0 vs Day 9 and Day 40", "result": "significant effect"}, {"measurement": "normalized FI vs vehicle-injected", "setting": "mdx mice; Series 2, Day 40, p<0.05", "result": "significantly different"}, {"measurement": "fatigue index (FI), combined post-treatment results", "setting": "mdx mice; Series 2, Days 9, 21 and 40 combined, p<0.05 vs vehicle", "result": "reducing; also recorded: reduces"}, {"measurement": "normalized FI vs vehicle-injected", "setting": "mdx mice; Series 2, Days 9 and 21", "result": "failed to reach significance"}, {"measurement": "FPT10 as percent of FPT1", "setting": "mdx mice; [3]", "result": "approximately 77%"}, {"measurement": "maximum FPT", "setting": "mdx mice; [3]", "result": "approximately 310 g"}, {"measurement": "whole body strength", "setting": "mdx mice; mature mdx mice", "result": "significantly increasing"}, {"measurement": "WBT5 vs vehicle-injected", "setting": "mdx mice; [4]", "result": "elevated"}, {"measurement": "WBT10 vs vehicle-injected", "setting": "mdx mice; [4]", "result": "elevated"}, {"measurement": "FR (WBT10/WBT5) post-treatment vs pre-treatment", "setting": "mdx mice; [5]", "result": "increased"}, {"measurement": "WBT10 post-treatment vs pre-treatment", "setting": "mdx mice; [5]", "result": "increased"}, {"measurement": "increase in WBT5 relative to vehicle", "setting": "mdx mice; young mdx, 60 days of age", "result": "did not reach statistical significance"}, {"measurement": "increase in WBT10 relative to vehicle", "setting": "mdx mice; young mdx, 60 days of age", "result": "did not reach statistical significance"}, {"measurement": "FR relative to vehicle-injected mdx mice", "setting": "mdx mice; young mdx, 60 days of age, p<0.01", "result": "increased; also recorded: prevents a decline"}, {"measurement": "effect on viability", "setting": "[1]", "result": "no obvious effect"}, {"measurement": "improvement in average twitch tension relative to vehicle-injected", "setting": "mdx gastrocnemius muscle; mature mdx (about 15 months), 50 mg/kg daily, average 72 days", "result": 52, "unit": "%"}, {"measurement": "twitch tension development", "setting": "mdx gastrocnemius muscle; mature mdx mice, average age 15 months at sacrifice", "result": "improves"}, {"measurement": "improvement in twitch tension/gm relative to vehicle-injected", "setting": "mdx gastrocnemius muscle; mature mdx, just failed to reach statistical significance (p>=0.05)", "result": 45, "unit": "%"}, {"measurement": "increase in twitch tension vs vehicle-treated", "setting": "mdx gastrocnemius muscle; young adult (2 month old) mdx", "result": 13, "unit": "%"}, {"measurement": "increase in twitch tension/mg muscle weight vs vehicle-treated", "setting": "mdx gastrocnemius muscle; young adult (2 month old) mdx", "result": 11, "unit": "%"}, {"measurement": "twitch tension development", "setting": "mdx gastrocnemius muscle; young adult mdx mice", "result": "improves"}]}]}
